Data reported in patent US8580832B2, “Substituted phenoxy aminothiazolones as estrogen related receptor-α modulators” (Janssen Pharmaceutica N.V., priority 2007, dated 2013).

target: T1, ERR1 (also known as ERR-α or ERR-1) (Homo sapiens, UniProt P11474); assay: TR-FRET assay: disruption of co-activator peptide binding to ERR1 LBD; type: biochemical; details: 6His-tagged ERR1 LBD 6 nM, GST-SRC-2 peptide 6 nM, 25° C., 4-18 hours; average of 3 independent experiments
T1 construct: the ^6His-tagged-ERR1 LBD
T1 sequence (P11474 193-421 limits assumed): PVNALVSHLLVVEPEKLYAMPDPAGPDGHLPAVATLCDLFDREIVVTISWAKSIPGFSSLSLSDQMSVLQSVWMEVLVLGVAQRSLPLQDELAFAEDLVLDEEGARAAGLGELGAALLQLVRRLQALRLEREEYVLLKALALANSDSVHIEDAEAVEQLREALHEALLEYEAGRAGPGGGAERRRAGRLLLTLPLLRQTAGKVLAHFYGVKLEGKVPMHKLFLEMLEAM
Description: Time-Resolved Fluorescence Resonance Energy Transfer (TR-FRET) experiments were performed to examine the functional response of ERR1 (also known as ERR-α or ERR-1) ligands. The TR-FRET assay described herein relied on the conformation of ERR1 for binding to a co-activator peptide: when a test compound binds to ERR1 and alters its conformation, it can disrupt the binding of the co-activator peptide. The components of this homogeneous secondary assay included: the ^6His-tagged-ERR1 LBD, a GST-labeled-hSRC2 co-activator polypeptide and a fluorescent donor/acceptor pair from CIS bio international htrf/bioassays (Bedford, Mass.) using both an α-GST Europium Cryptate (Eu) label and an α^6His-XL665 (allophycocyanin) fluorophore.
For TR-FRET measurements, the reaction was buffered in 25 mM Tris pH 8, 2.5 mM Hepes, 20 mM KCl, 1 mM DTT, and 0.05 mg/mL BSA (-lipids). […] Reactions were allowed to reach equilibrium at 25° C. for 4-18 hours before collecting data on the Analyst from LJL Biosystems (Molecular Devices Sunnyvale, Calif.). […] Dose response curves were fitted using a hyperbolic equation and the data reported is the average of 3 independent experiments.

| Structure (SMILES) | EC50 |
| --- | --- |
| COc1cc(/C=C2\SC(NCCNC(N)=O)=NC2=O)ccc1Oc1ccc(C#N)cc1C(F)(F)F [Example 74, (2-{5-[4-(4-Cyano-2-trifluoromethyl-phenoxy)-3-methoxy-benzylidene]-4-oxo-4,5-dihydro-thiazol-2-ylamino}-ethyl)-urea] | 17 nM |
| N#Cc1ccc(Oc2ccc(/C=C3\SC(NCCCN4CCNC(=O)C4)=NC3=O)cc2F)c(C(F)(F)F)c1 [Example 100, 4-(2-Fluoro-4-{4-oxo-2-[3-(3-oxo-piperazin-1-yl)-propylamino]-4H-thiazol-5-ylidenemethyl}-phenoxy)-3-trifluoromethyl-benzonitrile] | 31 nM |
| COc1cc(/C=C2\SC(NCCN3CCCC3=O)=NC2=O)ccc1Oc1ccc(C#N)cc1C(F)(F)F [Example 36, 4-(2-Methoxy-4-{4-oxo-2-[2-(2-oxo-pyrrolidin-1-yl)-ethylamino]-4H-thiazol-5-ylidenemethyl}-phenoxy)-3-trifluoromethyl-benzonitrile] | 8 nM |
| CCS(=O)(=O)N1CCN(C2=NC(=O)/C(=C/c3ccc(Oc4ccc(C#N)cc4C(F)(F)F)c(F)c3)S2)CC1 [Example 44, 4-{4-[2-(4-Ethanesulfonyl-piperazin-1-yl)-4-oxo-4H-thiazol-5-ylidenemethyl]-2-fluoro-phenoxy}-3-trifluoromethyl-benzonitrile] | 68 nM |
| COc1cc(/C=C2\SC(NC[C@@H](O)CO)=NC2=O)ccc1Oc1ccc(C#N)cc1C(F)(F)F [Example 34, 4-{4-[2-(2R,3-Dihydroxy-propylamino)-4-oxo-4H-thiazol-5-ylidenemethyl]-2-methoxy-phenoxy}-3-trifluoromethyl-benzonitrile] | 19 nM |
| COc1cc(/C=C2\SC(N3CCC(C(N)=O)CC3)=NC2=O)ccc1Oc1ccc(C#N)cc1C(F)(F)F [Example 78, 1-{5-[4-(4-Cyano-2-trifluoromethyl-phenoxy)-3-methoxy-benzylidene]-4-oxo-4,5-dihydro-thiazol-2-yl}-piperidine-4-carboxylic acid amide] | 14 nM |
| CN1CCN(CCNC2=NC(=O)/C(=C/c3ccc(Oc4ccc(C#N)cc4C(F)(F)F)c(F)c3)S2)CC1 [Example 104, 4-(2-Fluoro-4-{2-[2-(4-methyl-piperazin-1-yl)-ethylamino]-4-oxo-4H-thiazol-5-ylidenemethyl}-phenoxy)-3-trifluoromethyl-benzonitrile] | 22 nM |
| CN(CC(O)CO)C1=NC(=O)/C(=C/c2ccc(Oc3ccc(C#N)cc3C(F)(F)F)c(F)c2)S1 (stereo not drawn) [Example 50, 4-(4-{2-[(2,3-Dihydroxy-propyl)-methyl-amino]-4-oxo-4H-thiazol-5-ylidenemethyl}-2-fluoro-phenoxy)-3-trifluoromethyl-benzonitrile] | 12 nM |
| COc1cc(/C=C2\SC(N3CCN(C)C(=O)C3)=NC2=O)ccc1Oc1ccc(C#N)cc1C(F)(F)F [Example 94, 4-{2-Methoxy-4-[2-(4-methyl-3-oxo-piperazin-1-yl)-4-oxo-4H-thiazol-5-ylidenemethyl]-phenoxy}-3-trifluoromethyl-benzonitrile] | 8 nM |
| COC(=O)c1ccc(Oc2ccc(/C=C3\SC(N4CC(C(=O)O)C4)=NC3=O)cc2OC)c(C(F)(F)F)c1 [Example 52, 1-{5-[3-Methoxy-4-(4-methoxycarbonyl-2-trifluoromethyl-phenoxy)-benzylidene]-4-oxo-4,5-dihydro-thiazol-2-yl}-azetidine-3-carboxylic acid] | 2 nM |
| COc1cc(/C=C2\SC(N3CCCC(O)C3)=NC2=O)ccc1Oc1ccc(C(F)(F)F)cc1C(F)(F)F (stereo not drawn) [Example 58, 5-[4-(2,4-Bis-trifluoromethyl-phenoxy)-3-methoxy-benzylidene]-2-(3-hydroxy-piperidin-1-yl)-thiazol-4-one] | 24 nM |
| N#Cc1ccc(Oc2ccc(/C=C3\SC(N4CCCC(O)C4)=NC3=O)cc2F)c(C(F)(F)F)c1 (stereo not drawn) [Example 103, 4-{2-Fluoro-4-[2-(3-hydroxy-piperidin-1-yl)-4-oxo-4H-thiazol-5-ylidenemethyl]-phenoxy}-3-trifluoromethyl-benzonitrile] | 47 nM |
| COc1cc(/C=C2\SC(NCCC(=O)N3CCOCC3)=NC2=O)ccc1Oc1ccc(C#N)cc1C(F)(F)F [Example 73, 4-{2-Methoxy-4-[2-(3-morpholin-4-yl-3-oxo-propylamino)-4-oxo-4H-thiazol-5-ylidenemethyl]-phenoxy}-3-trifluoromethyl-benzonitrile] | 13 nM |
| N#Cc1ccc(Oc2ccc(/C=C3\SC(N4CC(C(=O)O)C4)=NC3=O)cc2F)c(C(F)(F)F)c1 [Example 116, 1-{5-[4-(4-Cyano-2-trifluoromethyl-phenoxy)-3-fluoro-benzylidene]-4-oxo-4,5-dihydro-thiazol-2-yl}-azetidine-3-carboxylic acid] | 34 nM |
| N#Cc1ccc(Oc2ccc(/C=C3\SC(NCc4nnn[nH]4)=NC3=O)cc2F)c(C(F)(F)F)c1 [Example 108, 4-(2-Fluoro-4-{4-oxo-2-[(1H-tetrazol-5-ylmethyl)-amino]-4H-thiazol-5-ylidenemethyl}-phenoxy)-3-trifluoromethyl-benzonitrile] | 10 nM |

More lines, in order of falling EC50, values ahead:

| EC50 | Structure (SMILES) |
| --- | --- |
| 150 nM | CCOc1cc(/C=C2\SC(N(CCO)CCO)=NC2=O)ccc1Oc1ccc(C#N)cc1C(F)(F)F [Example 56, 4-(4-{2-[Bis-(2-hydroxy-ethyl)-amino]-4-oxo-4H-thiazol-5-ylidenemethyl}-2-ethoxy-phenoxy)-3-trifluoromethyl-benzonitrile] |
| 100 nM | COc1cc(/C=C2\SC(N(C)CCN)=NC2=O)ccc1Oc1ccc(C#N)cc1C(F)(F)F [Example 37, 4-(4-{2-[(2-Amino-ethyl)-methyl-amino]-4-oxo-4H-thiazol-5-ylidenemethyl}-2-methoxy-phenoxy)-3-trifluoromethyl-benzonitrile] |
| 40 nM | COc1cc(/C=C2\SC(N(CCO)CCO)=NC2=O)ccc1Oc1ccc(C(F)(F)F)cc1C(F)(F)F [Example 117, 2-[Bis-(2-hydroxy-ethyl)-amino]-5-[4-(2,4-bis-trifluoromethyl-phenoxy)-3-methoxy-benzylidene]-thiazol-4-one] |
| 26 nM | N#Cc1ccc(Oc2ccc(/C=C3\SC(NCCC4CCOCC4)=NC3=O)cc2F)c(C(F)(F)F)c1 [Example 110, 4-(2-Fluoro-4-{4-oxo-2-[2-(tetrahydro-pyran-4-yl)-ethylamino]-4H-thiazol-5-ylidenemethyl}-phenoxy)-3-trifluoromethyl-benzonitrile] |
| 18 nM | N#Cc1ccc(Oc2ccc(/C=C3\SC(NCCN4CCNC(=O)C4)=NC3=O)cc2F)c(C(F)(F)F)c1 [Example 99, 4-(2-Fluoro-4-{4-oxo-2-[2-(3-oxo-piperazin-1-yl)-ethylamino]-4H-thiazol-5-ylidenemethyl}-phenoxy)-3-trifluoromethyl-benzonitrile] |
| 17 nM | COc1cc(/C=C2\SC(NCCOCCO)=NC2=O)ccc1Oc1ccc(C#N)cc1C(F)(F)F [Example 69, 4-(4-{2-[2-(2-Hydroxy-ethoxy)-ethylamino]-4-oxo-4H-thiazol-5-ylidenemethyl}-2-methoxy-phenoxy)-3-trifluoromethyl-benzonitrile] |
| 16 nM | CCOc1cc(/C=C2\SC(N3CC(C(=O)O)C3)=NC2=O)ccc1Oc1ccc(C#N)cc1C(F)(F)F [Example 55, 1-{5-[4-(4-Cyano-2-trifluoromethyl-phenoxy)-3-ethoxy-benzylidene]-4-oxo-4,5-dihydro-thiazol-2-yl}-azetidine-3-carboxylic acid] |
| 15 nM | COc1cc(/C=C2\SC(NC3CCN(CCO)CC3)=NC2=O)ccc1Oc1ccc(C#N)cc1C(F)(F)F [Example 111, 4-(4-{2-[1-(2-Hydroxy-ethyl)-piperidin-4-ylamino]-4-oxo-4H-thiazol-5-ylidenemethyl}-2-methoxy-phenoxy)-3-trifluoromethyl-benzonitrile] |
| 13 nM | COc1cc(/C=C2\SC(NC[C@H](O)CO)=NC2=O)ccc1Oc1ccc(C#N)cc1C(F)(F)F [Example 35, 4-{4-[2-(2S,3-Dihydroxy-propylamino)-4-oxo-4H-thiazol-5-ylidenemethyl]-2-methoxy-phenoxy}-3-trifluoromethyl-benzonitrile] |
| 12 nM | COc1cc(/C=C2\SC(N)=NC2=O)ccc1Oc1ccc(C#N)cc1C(F)(F)F [Compound 1, 4-[4-(2-Amino-4-oxo-4H-thiazol-5-ylidenemethyl)-2-methoxy-phenoxy]-3-trifluoromethyl-benzonitrile] |
| 9 nM | CCS(=O)(=O)N1CCN(C2=NC(=O)/C(=C/c3ccc(Oc4ccc(C#N)cc4C(F)(F)F)c(OC)c3)S2)CC1 [Example 38, 4-{4-[2-(4-Ethanesulfonyl-piperazin-1-yl)-4-oxo-4H-thiazol-5-ylidenemethyl]-2-methoxy-phenoxy}-3-trifluoromethyl-benzonitrile] |
| 1 nM | COc1cc(/C=C2\SC(N3CCNC(=O)C3)=NC2=O)ccc1Oc1ccc(Cl)cc1C(F)(F)F [Example 61, 4-{5-[4-(4-Chloro-2-trifluoromethyl-phenoxy)-3-methoxy-benzylidene]-4-oxo-4,5-dihydro-thiazol-2-yl}-piperazin-2-one] |
